Measurements from patent US20230218714A1, “DIAGNOSTICS AND USE OF QUORUM SENSING MOLECULES IN MUSCLE WASTING” (Universiteit Gent, priority 2019, published 2023).
Values joined by “and” are separate entries in the source; they are usually repeats but may differ in a detail not shown here. Equal entries are not always repeated. “Also recorded” adds a separate entry of the source. Where no end group is shown, it is not given here.

What was measured:
[1] = system: IL-6 production by C2C12 myotubes; experiment: IL-6 production by C2C12 myotubes (sandwich ELISA); type: cell-based, mouse; conditions: for Effect: inflammation (IL-6 production, hit direction): screening at 1 μM
Procedure: C2C12 myoblasts (2.5×10^4 cells/well) were seeded in 96-well plates and incubated until they reached 80% confluency, after which the proliferation medium was removed and replaced by differentiation medium. After 6 days of incubation with daily renewed differentiation medium, the cells were treated with 1 μM of QSM, placebo or positive control (LPS) for 24 hours. IL-6 levels were determined in the supernatants using a sandwich ELISA (eBioscience), using IL-6 capture antibody, blocking solution, samples and standards, IL-6 detection antibody, avidin-horseradish peroxidase and substrate solution which were added sequentially, with washing steps in between. After stopping the reaction with H2SO4 solution, the absorbance was measured at 450 nm and 570 nm (correction wavelength) using a microplate reader (ThermoLab Systems). Concentrations were determined using the standard curves generated with known concentrations of IL-6.
Several pro-inflammatory cytokines are elevated in sepsis, cancer, ageing and other catabolic diseases. They are thought to trigger muscle wasting (partly) through NF-kB pathways. […] In these screening experiments, the effects of QSM on myotube IL-6 production were assessed using a sandwich ELISA.
(§1) In a further set of experiments, using similar methods as described for the screening experiments, a number of QSPs were tested for a dose response relation in C2C12 cells.

human muscle cells [2] = experiment: IL-6 production dose response in human muscle cells; type: cell-based; conditions: FIG. 12
Procedure: (§2) Differentiation medium consisted of high glucose Glutamax DMEM supplemented with penicillin (100 units/ml), streptomycin (100 μg/ml) and insulin (10 μg/mL).
(§3) Using similar methods as described for the C2C12 experiments, a number of QSPs were tested for a dose response relation in human muscle cells.

[3] = system: GDF15 production by C2C12 myotubes; experiment: GDF15 production by C2C12 myotubes (sandwich ELISA), mitochondrial changes; type: cell-based, mouse; conditions: QSM 1 μM, C2C12 myotubes
Procedure: GDF15 levels were determined in the supernatants of C2C12 cells after QSM, placebo or positive control (oligomyin) treatment, using a sandwich ELISA (R&D Systems). A similar protocol as described for the IL-6 determination was used.
GDF15 is considered a useful biomarker for direct or indirect changes in mitochondrial function. Moreover, GDF15 is implicated in muscle wasting diseases like sarcopenia, chronic obstructive pulmonary disease cachexia and critical illness.

[4] = system: atrogin, MuRF1, caspase 3 and atg7; experiment: Protein degradation gene expression in C2C12 cells (RT-qPCR); type: cell-based, mouse
Procedure: C2C12 cells were seeded in 6-well (4×10^5 cells/well) or 12-well plates (1.5×10^5 cells/well). […] Thereafter, cells were scraped off from the well surface and resuspended in RLT lysis buffer (Qiagen). RNA was extracted from these lysed cells using RNeasy micro columns (Qiagen). Subsequently, RNA was reverse-transcribed using a mix of oligo-dT and random primers together with Quantiscript reverse transcriptase (Qiagen). DNAse steps were included in the protocol to remove possible DNA contamination. Real-time PCR was performed starting with 7.5 ng cDNA and both sense and antisense oligonucleotides in a final volume of 8 μl in a 384-well plate using the SensiMix SYBR green PCR master mix (Bioline). The following genes were analysed: atrogin, MuRF1, caspase 3 and atg7.
The second derivative method was used to determine the threshold or Cq values, with analysis of Ppia (Peptidylprolyl isomerase A), Rer (Rhodopsin enhancer region) and Hprt (Hypoxanthine-guanine phosphoribosyltransferase) mRNA to normalize gene expression (delta Cq method). […]
To screen the possible effects of 75 QSM on these 3 proteolysis systems, mRNA transcripts of the following representative genes were measured: atrogin and MuRF1 (UPS), caspase 3 (apoptosis system) and autophagy-related protein 7 (autophagy system). […]

C2C12 myotubes = experiment: MTT reduction dose response in C2C12 myotubes; type: cell-based, mouse
Procedure: as §1

C2C12 myoblasts = experiment: MTT cell viability assay in C2C12 myoblasts
Procedure: The mouse myoblast C2C12 cell line (ATCC, CRL-1772) was cultured at 37° C. in a 5% CO2 humidified incubator in Dulbecco's modified Eagle medium (DMEM; Thermo Fisher Scientific). For C2C12 cell proliferation, the medium was supplemented with 10% fetal bovine serum (FBS; Thermo Fisher Scientific), 100 units/ml penicillin, and 100 μg/ml streptomycin (1% Pen/Strep; Thermo Fisher Scientific). The proliferation medium was renewed each 2-3 days and confluency was kept below 80%. For differentiation of the C2C12 myoblasts into myotubes, proliferation medium was replaced by differentiation medium when cells reached 80% confluency.
Viability of QSM was assessed using the 3-(4,5-dimethylthiazol-2-yl)-2,5-diphenyltetrazolium bromide (MTT) assay. Briefly, C2C12 myoblasts were seeded in a 96-well plate (3×10^4 cells/well). 24 hours post-seeding, the wells were treated with QSM (1 μM), placebo or positive control (DMSO 2%) and incubated for 24 hours at 37° C. Next, 20 μL of MTT reagent (5 mg/mL; Sigma-Aldrich) was added to each well and the plates were returned to the incubator for 2.5 hours. After incubation, supernatant was removed from the wells and 150 μL of DMSO was added to release and dissolve the formazan crystals. Absorbance was measured at 570 nm using a microplate reader (Thermo Fisher).
The MTT assay is a widely validated and accepted viability assay for screening experiments. In this assay, the reduction of MTT into formazan, catalysed by living cell enzymes, is used as a marker of cell viability. If QSM are cytotoxic or cytostatic towards C2C12 cells, a decrease in MTT reduction is expected (viability less than 100%), while an increased C2C12 proliferation caused by QSM will result in an increased MTT reduction (viability more than 100%).
In a further set of experiments, the dose response effect of QSPs Q22 and Q184 was assessed on MTT reduction of C2C12 myotubes (tables 7.4 and 7.5).

[5] = C. elegans medium, 1 μM during 12 days
C. elegans = C. elegans swimming behaviour (muscle wasting/aging model); type: in vivo; parameters: key to Wave initiation rate / Asymmetry / Stretch / Curling / Travel speed / Brush stroke / Activity index: relative to placebo set to 1.0; conditions: for muscle wasting / aging muscle phenotype in C. elegans: QSP in medium (1 μM; QSP022 also 10 μM), swimming parameters; for Activity index / Asymmetry / Body wave number / Brush stroke / Curling / Stretch / Travel speed / Wave initiation rate: DMSO positive control
Source text: The C. elegans model is a well-established aging model: they diminish in locomotory vigor as they age, a phenomenon that is attributed to a physical deterioration of muscle and synapses. QSPs were introduced in the medium of living C. elegans. As comparisons, a placebo experiment was used as negative control, while DMSO was used as positive control.
Using automatic, objective imaging software, different swimming behaviour variables associated with this decrease in locomotory vigor or muscle wasting were investigated. Wave initiation rate, travel speed, brush stroke and activity index do decrease with muscle wasting, while body wave number, asymmetry, curling and stretch do increase with muscle wasting, as described in Restif et al., Plos Computational Biology, 2014.
More in particular, the results in these tables show Q184-associated changes in three swimming parameters in wild-type adults at day 3 (Table 9) and day 12 (Table 10) (n=120-170 from 3 independent trials for each condition). Data presented are means±s.e.m (placebo set to 1.0).

human muscle cells [6] = experiment: MTT reduction dose response in human muscle cells; type: cell-based; conditions: FIG. 9
Procedure: as §2, §3

C2C12 cells [7] = experiment: Co-treatment of C2C12 cells with QSP and ala-scan derivative, IL-6 response; type: cell-based, mouse; conditions: Q176 50 μM plus derivative 60 μM
Source text: (§4) Means±SEM, n=6. * P<0.05; ** P<0.01, *** P<0.001; paired Student's t test.

C2C12 cells [8] = experiment: Co-treatment of C2C12 cells with Q176 and ala-scan derivative, MTT response; type: cell-based, mouse; conditions: Q176 50 μM plus derivative 60 μM
Source text: as §4

[9] = day 3, placebo set to 1.0, Q184 at 1 μM
[10] = day 12, placebo set to 1.0, Q184 at 1 μM

With KSSAYSLQMGATAIKQVKKLFKKWGW [Q125] the “relative IL-6 production” value ([1]; QSM 1 μM, 24 h, relative to median of all QSM) was 171%, the “Relative IL-6” value ([1]; concentration 0.20 μM) was 0.89 and the “Relative IL-6” value ([1]; concentration 0.39 μM) was 0.90. For the same substance, the “Relative IL-6” value ([1]; concentration 1.56 μM) was 1.28, the “Relative IL-6” value ([1]; concentration 3.13 μM) was 1.96 and the “Relative IL-6” value ([1]; concentration 6.25 μM) was 2.08. The “Relative IL-6” value ([1]; concentration 12.5 μM) was 4.89, the “Relative IL-6” value ([1]; concentration 25 μM) was 5.55 and the “Relative IL-6” value ([1]; concentration 50 μM) was 8.23. The “Relative IL-6” value ([1]; concentration 100 μM) was 9.80, the “Effect: inflammation (IL-6 production, hit direction)” value [1] was “increased IL-6 production; also recorded: ↑ inflammation” and the “dose response relation, IL6 production” value (human muscle cells [2]) was “Typical curves were obtained”.
In the case of NEVPFEF [Q146], the “GDF15 secretion, effect relative to median” value [3] is reported as 80%, the “decrease in MuRF1 gene expression compared to placebo” value ([4]; QSM 1 μM, 24 h, individual screening) is reported as ~20% and 20% and the “Effect: proteolysis (hit direction)” value ([4]; screening at 1 μM) is reported as “↓ proteolysis”.
For SIFTLVA [Q184, SIFTLVA], the IC10 (C2C12 myotubes; MTT, Tubes) was 10 nM, the IC50 (C2C12 myotubes; MTT, Tubes) was 60 nM and the “Imax (relative MTT)” value (C2C12 myotubes; Tubes) was 0.48 relative MTT. The “Relative MTT” value (C2C12 myotubes; concentration 0.10 μM) was 0.68, the “Relative MTT” value (C2C12 myotubes; concentration 0.50 μM) was 0.60 and the “Relative MTT” value (C2C12 myotubes; concentration 1.00 μM) was 0.56. The “Relative MTT” value (C2C12 myotubes; concentration 5.00 μM) was 0.49, the “Relative MTT” value (C2C12 myotubes; concentration 10 μM) was 0.49 and the “Imax (relative MTT)” value (C2C12 myoblasts; Blasts) was 0.63 relative MTT. For the same substance, the IC10 (C2C12 myoblasts; MTT, Blasts) was 400 nM, the IC50 (C2C12 myoblasts; MTT, Blasts) was 1490 nM and the “Effect: viability (hit direction)” value (C2C12 myoblasts; screening at 1 μM, hit selection by MAD/quartile/SSMD/robust SSMD) was “decreasing viability hits”. For the same substance, the “stability in the medium” value [5] was “high stability”, the “muscle wasting / aging muscle phenotype in C. elegans” value (C. elegans) was “induced a muscle wasting phenotype; also recorded: muscle wasting effects; also recorded: inducing a muscle wasting phenotype” and the “muscle wasting / aging muscle phenotype in C. elegans” value (C. elegans; listed as QSP184) was “induces an aging muscle phenotype”. For the same substance, the Activity index (C. elegans; [9]) was 0.82, the Asymmetry (C. elegans; [9]) was 1.10 and the Body wave number (C. elegans; [9]) was 1.01. It also gave a Brush stroke (C. elegans; [9]) of 0.87, a Curling (C. elegans; [9]) of 0.92 and a Stretch (C. elegans; [9]) of 1.03. For the same substance, the Travel speed (C. elegans; [9]) was 0.55, the Wave initiation rate (C. elegans; [9]) was 0.90 and the Activity index (C. elegans; [10]) was 0.85. For the same substance, the Asymmetry (C. elegans; [10]) was 1.37, the Body wave number (C. elegans; [10]) was 1.29 and the Brush stroke (C. elegans; [10]) was 0.89. The Curling (C. elegans; [10]) was 1.50, the Stretch (C. elegans; [10]) was 1.06 and the Travel speed (C. elegans; [10]) was 0.81. The Wave initiation rate (C. elegans; [10]) was 0.84 and the “dose response relation, MTT reduction” value (human muscle cells [6]) was “Typical curves were obtained”.
For “GSLSTFFRLFNASFTQALGK (Synthetic Q176-A13)”, the “effect on Q176 mediated IL-6 induction” value (C2C12 cells [7]) was “inhibiting the Q176 mediated IL-6 induction”, the “effect on Q176 mediated IL-6 induction” value (C2C12 cells [7]; listed as QSP176-A13) was “clearly abolishes both effects” and the “effect on Q176 mediated MTT effect” value (C2C12 cells [8]) was “inhibiting the Q176 mediated MTT effect”. The “effect on Q176 mediated MTT effect” value (C2C12 cells [8]; listed as QSP176-A13) was “clearly abolishes both effects”.
With SGSLSTFFRLFNRSFTQALGK [Q176] the “Relative IL-6” value ([1]; concentration 0.20 μM) was 1.00, the “Relative IL-6” value ([1]; concentration 0.39 μM) was 0.89 and the “Relative IL-6” value ([1]; concentration 1.56 μM) was 1.53. The “Relative IL-6” value ([1]; concentration 3.13 μM) was 1.61, the “Relative IL-6” value ([1]; concentration 6.25 μM) was 2.39 and the “Relative IL-6” value ([1]; concentration 12.5 μM) was 3.24. The “Relative IL-6” value ([1]; concentration 25 μM) was 3.49, the “Relative IL-6” value ([1]; concentration 50 μM) was 5.81 and the “Relative IL-6” value ([1]; concentration 100 μM) was 6.01. For the same substance, the “Effect: inflammation (IL-6 production, hit direction)” value [1] was “increased IL-6 production; also recorded: ↑ inflammation” and the “dose response relation, IL6 production” value (human muscle cells [2]) was “Typical curves were obtained”.
